Assays:
[1] = tested on: SH-SY5Y-hTau441(V337M/R406W) cells; assay: Tau phosphorylation assay (Phospho(Thr231)/Total Tau); type: cell-based, human; conditions: 25 μM HCQ
Experimental: Tau Phosphorylation: SH-SY5Y-hTau441(V337M/R406W) cells were maintained in culture medium (DMEM medium, 10% FCS, 1% NEAA, 1% L-Glutamine, 100 g/mL Gentamycin, 300 μg/mL Geneticin G-418) and differentiated with 10 μM retinoic acid (RA) for 5 days changing medium every 2 to 3 days. Prior to the treatment, cells were seeded onto 24-well plates at a cell density of 2×10^5 cells per well (DIV1). Drug compounds were applied on DIV2. After 24 h of incubation (DIV3), cells on 24-well plates were harvested in 60 μL RIPA-Buffer [50 mM Tris pH 7.4, 1% Nonidet P40, 0.25% Na-deoxy-cholate, 150 mM NaCl, 1 mM EDTA supplemented with freshly added 1 μM NaF, 0.2 mM Na-ortho-vanadate, 80 μM Glycerophosphate, protease (Calbiochem) and phosphatase (Sigma) inhibitor cocktail]. Protein concentration was determined by BCA assay (Pierce, ThermoFisher) and samples were adjusted to a uniform total protein concentration. Total Tau and phosphorylated Tau were determined by immunosorbent assay from Mesoscale Discovery (Phospho(Thr231)/Total Tau Kit K15121D, Mesoscale Discovery).
Tau phosphorylation: SH-SY5Y-hTau441(V337M/R406W) cells were maintained in culture medium (DMEM medium, 10% FCS, 1% NEAA, 1% L-Glutamine, 100 μg/mL Gentamycin, 300 μg/mL Geneticin G-418) and differentiated with 10 μM retinoic acid (RA) for 5 days changing medium every 2 to 3 days. Prior to the treatment, cells were seeded onto 24-well plates at a cell density of 2×10^5 cells per well (DIV1). HCQ (25 μM) was applied on DIV2. After 24 h of incubation (DIV3), cells on 24-well plates were harvested in 60 μL RIPA-Buffer [50 mM Tris pH 7.4, 1% Nonidet P40, 0.25% Na-deoxy-cholate, 150 mM NaCl, 1 mM EDTA supplemented with freshly added 1 μM NaF, 0.2 mM Na-ortho-vanadate, 80 μM Glycerophosphate, protease (Calbiochem) and phosphatase (Sigma) inhibitor cocktail]. Protein concentration was determined by BCA assay (Pierce, ThermoFisher) and samples were adjusted to a uniform total protein concentration. Total Tau and phosphorylated Tau were determined by immunosorbent assay from Mesoscale Discovery (Phospho(Thr231)/Total Tau Kit K15121D, Mesoscale Discovery).
Tau Phosphorylation: SH-SY5Y-hTau441(V337M/R406W) cells were maintained in culture medium [DMEM medium, 10% FCS, 1% nonessential amino acids (NEAA), 1% l-glutamine, gentamycin (100 μg/ml), and geneticin G-418 (300 μg/ml)] and differentiated with 10 μM retinoic acid for 5 days changing medium every 2 to 3 days. […] Protein concentration was determined by BCA assay (Pierce, Thermo Fisher Scientific, Waltham, MA), and samples were adjusted to a uniform total protein concentration. Total tau and phosphorylated tau were determined by immunosorbent assay from Mesoscale Discovery [Phospho(Thr231)/Total Tau Kit K15121D, Mesoscale Discovery, Meso Scale Diagnostics]. […]

[2] = biological target: T1, STAT3 (Homo sapiens, UniProt P40763); assay: Western blot of total and phosphorylated STAT3 in human cell lines; type: cell-based; conditions: 50 μM; for p-STAT3 (Tyr705 and Ser727) / total STAT3: 48 hours
T1 construct: endogenous in cells; host or cells: HMC3 (ATCC CRL-3304), 1321N1 (Sigma-Aldrich), SK-N-BE(2)-M17 (ATCC CRL-2267)
Experimental: Cell and neuron cultures: Immortalized human microglia HMC3 cells (ATCC CRL-3304) and astrocytoma 1321N1 cells (Sigma-Aldrich; derived from human brain astrocytoma; Macintyre et al., 1972) were cultured in Eagle's minimum essential medium (EMEM) supplemented with 10% fetal bovine serum (FBS, Gibco) and 1% antibiotics and antimycotics (Gibco). Neuroblastoma SK-N-BE(2)-M17 (M17) (ATCC CRL-2267) cells were cultured in a 1:1 mixture of EMEM and F12 media, supplemented with 10% FBS plus 1% antibiotics and antimycotics.
HCQ treatment: Treatment with hydroxychloroquine Sulfate (Selleckchem, Catalog No.S4430) was performed at 50 μM concentration.
Western blot analysis: Protein extracts were obtained by lysing cells with a denaturing buffer containing 2% sodium dodecyl sulfate (SDS) (Sigma-Aldrich) in 50 mM HEPES. After boiling and sonication, whole-cell protein extracts were size-fractionated through polyacrylamide gels and transferred to nitrocellulose membranes (Bio-Rad). Membranes were blocked with 5% non-fat dry milk and immunoblotted. Primary antibodies were employed that recognized total STAT3 (124H6) (Cell Signaling, 9139T), phosphorylated STAT3 (Tyr705) (D3A7) XP® (Cell Signaling, 9145S), and phosphorylated STAT3 (Ser727) (Cell Signaling, 94994S).
Statistical analysis: Digitized images were obtained, processed, and quantified with ImageLab version 6.1 (BioRad Laboratories).

[3] = tested on: Primary cortical neurons; assay: Cell death due to trophic factor withdrawal; type: cell-based, mouse; conditions: HCQ 0.25, 2.5 and 25 μM
Experimental: Cell death due to trophic factor withdrawal: Primary cortical neurons from E18 C57Bl/6 mice were prepared as previously described. On the day of preparation (DIV1), cortical neurons were seeded on poly-D-lysine pre-coated 96-well plates at a density of 3×10^4 cells per well. Every 4-6 days, a half medium exchange using full medium (Neurobasal, 2% B-27, 0.5 mM glutamine, 1% Penicillin-Streptomycin) was carried out. On DIV8, a full medium exchange to B-27 free medium (Neurobasal, 0.5 mM glutamine, 1% Penicillin-Streptomycin) was performed and HCQ (0.25 μM, 2.5 μM and 25 μM) was applied thereafter. […]
YO-PRO™-1 (Invitrogen; Y3603) assay was carried out to detect apoptotic cells in combination with Propidium iodide (PI; P4864 Sigma Aldrich) staining for necrotic cells. […] Plate was measured at the multimode-reader (Cytation 5, BioTek).
MTT solution was added to each well in a final concentration of 0.5 mg/mL. […] Optical density was measured with a Cytation 5 (Biotek) multimode reader at wavelength 570 nm. Values were calculated as percent of control values (vehicle control or lesion control).
The Lactate dehydrogenase (LDH) toxicity assay was carried out on the supernatants collected after treatment using the Cytotoxicity Detection Kit (Roche Diagnostics, Cat. No: 11 644 793 001). […] Absorbance was measured at 492 nm and 620 nm as reference wavelength with a Cytation 5 (Biotek) multimode reader. […]

[4] = tested on: Primary hippocampal neurons; assay: Neurite outgrowth and neurogenesis; type: cell-based, mouse; conditions: HCQ 25, 2.5 or 0.25 μM
Experimental: Neurite outgrowth and neurogenesis: Primary hippocampal neurons were prepared from E18.5 timed pregnant C57BL/6JRccHsd mice as previously described. Cells were seeded in poly-D-lysine pre-coated 96-well plates at a density of 2.6×10^4 cells/well in (Neurobasal, 2% B-27, 0.5 mM glutamine, 25 μM glutamate, 1% Penicillin-Streptomycin). Directly on DIV1 HCQ (TargetMol, T0951) at 25 μM, 2.5 μM or 0.25 μM concentrations or vehicle control was applied. On DIV2 10 μM Bromodeoxyuridine (BrdU; B5002 Sigma Aldrich) was added and cells were fixed after additional 24 h. Cells were permeabilized with 0.1% Triton-X and incubated with primary Beta Tubulin Isotype III (T8660, Sigma Aldrich) and BrdU antibodies (MAS250c, AHrlan-Sera Lab) overnight at 4° C. Afterwards cells were washed two times with PBS and incubated with fluorescently labeled secondary antibodies and DAPI for 1.5 hour at RT in the darkness. Cells were rinsed three times with PBS imaged with the Cytation 5 Multimode reader (BioTek) at 10× magnification (6 images per well). BrdU positive cells were counted as marker for neurogenesis and Beta Tubulin Isotype III signal was used for macro-based quantification of neurite outgrowth.

[5] = tested on: iPSCs; assay: LPS induced neuroinflammation (iPSCs); type: cell-based; conditions: posterior probability of a protective effect
Experimental: Cell-based assays: For each combination of drugs and assay, the posterior probability P(Hi|data) of protective, neutral, and adverse drug effect (formal hypotheses H1, H0, H2, respectively) were evaluated. Dose-response relationships (x-y data) were modeled with a Bayesian nonlinear regression model:
and Bayesian estimation of the posterior density of the fold change was performed using default settings of the Markov chain Monte Carlo samples implemented by the PyMC python library. For efficient sample, each bioactivity data set was standardized such that […] corresponded to one standard deviation. Diagnostic criteria (posterior sample of fitted curves, effective sample sizes, values of the r statistic, and Markov chain standard errors) were inspected for the fit and three poorly fitted data sets out of a total of 91 data sets were excluded.

T1 sequence (P40763 whole entry): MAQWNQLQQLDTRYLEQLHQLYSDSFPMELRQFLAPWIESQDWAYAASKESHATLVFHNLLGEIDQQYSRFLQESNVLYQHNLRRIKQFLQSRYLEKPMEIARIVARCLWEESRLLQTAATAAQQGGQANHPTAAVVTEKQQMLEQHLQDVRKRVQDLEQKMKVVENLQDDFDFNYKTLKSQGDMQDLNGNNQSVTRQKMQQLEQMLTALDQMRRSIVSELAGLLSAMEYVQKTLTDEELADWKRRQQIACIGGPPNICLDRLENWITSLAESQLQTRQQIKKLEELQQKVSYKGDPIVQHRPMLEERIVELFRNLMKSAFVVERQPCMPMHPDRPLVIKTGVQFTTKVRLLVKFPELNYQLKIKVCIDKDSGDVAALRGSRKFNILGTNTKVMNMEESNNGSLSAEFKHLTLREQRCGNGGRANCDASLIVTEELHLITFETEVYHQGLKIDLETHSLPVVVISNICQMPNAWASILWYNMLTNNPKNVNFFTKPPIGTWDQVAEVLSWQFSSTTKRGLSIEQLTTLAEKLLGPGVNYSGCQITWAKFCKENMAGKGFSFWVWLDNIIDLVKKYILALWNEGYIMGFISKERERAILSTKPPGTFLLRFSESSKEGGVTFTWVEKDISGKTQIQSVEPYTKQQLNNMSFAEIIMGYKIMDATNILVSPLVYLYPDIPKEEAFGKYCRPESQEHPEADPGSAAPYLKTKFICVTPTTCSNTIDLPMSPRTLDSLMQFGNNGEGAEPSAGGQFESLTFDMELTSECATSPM

`CCN(CCO)CCCC(C)Nc1ccnc2cc(Cl)ccc12` (centres unmarked) [HCQ, hydroxychloroquine] was tested, and the “phosphorylated tau (ptau231)” value [1] was “reduced”, the total tau [1] was “reduced” and the cell viability [2] was “did not have adverse effects on cell viability”. For the same molecule, the “p-STAT3 (Tyr705 and Ser727)” value ([2]; 1321N1 cells) was “reduced”, the “total STAT3” value ([2]; 1321N1 cells) was “without alteration” and the “p-STAT3 (Tyr705 and Ser727)” value ([2]; HMC3 cells) was “reduced”. For the same molecule, the “total STAT3” value ([2]; HMC3 cells) was “without alteration”, the “phosphorylated STAT3 and total STAT3” value ([2]; SK-N-BE(2)-M17 cells) was “non-significant” and the “cell death in response to trophic factor withdrawal” value [3] was “No effects”. For the same molecule, the “neurite outgrowth and neurogenesis” value [4] was “No effects”.

For `C[C@H](CCC(=O)NCCS(=O)(=O)O)[C@H]1CC[C@H]2[C@@H]3[C@@H](O)C[C@@H]4C[C@H](O)CC[C@]4(C)[C@H]3CC[C@]12C` [TUDCA, tauroursodeoxycholic acid], the “effect in LPS induced neuroinflammation (iPSCs)” value [5] was “strongly protective”.

Source: patent US20240269128A1, “COMPOUNDS FOR TREATING OR PREVENTING ALZHEIMER'S DISEASE” (THE UNITED STATES OF AMERICA, as represented by the …, priority 2021, published 2024)
